Numbers after ± are expanded uncertainties.
What was measured:
[1] = activity coefficient (dimensionless); of the first substance listed, at infinite dilution; xn = mol fraction of the nth substance listed; details: 101 kPa, Liquid, Chromatography, x1 = 0
[2] = refractive index (Na D-line) (dimensionless); details: 293.15 K; 101.33 kPa; Liquid; Standard Abbe refractometry
[3] = 288.15 K; 101.33 kPa; Liquid; Vibrating tube method

Question: Which activity coefficient ([1]; 333.2 K) does the source give for `C=CCCCCC` [1-heptene] + OCCOCCO here?
Answer: The activity coefficient was 72.3 ± 5.

Question: And the activity coefficient ([1]; 348.2 K)?
Answer: The activity coefficient was 66.6 ± 4.6.

Question: And the activity coefficient ([1]; 363.2 K)?
Answer: The activity coefficient was 60.5 ± 4.1.

Question: For `C=CCCCCC` [1-heptene] + OCCOCCOCCO, which activity coefficient ([1]; 333.2 K) is on record?
Answer: Its activity coefficient is 34.4 ± 2.4.

Question: What about the activity coefficient ([1]; 348.2 K) of the same compound?
Answer: The activity coefficient was 30.6 ± 2.1.

Question: And the activity coefficient ([1]; 363.2 K)?
Answer: The activity coefficient was 27.5 ± 1.9.

Question: What does the source list for `C#CCCCCC` [1-heptyne] + OCCOCCO?
Answer: activity coefficient ([1]; 333.2 K): 20.3 ± 1.4; activity coefficient ([1]; 348.2 K): 20.8 ± 1.4; activity coefficient ([1]; 363.2 K): 19.3 ± 1.3

Question: Which activity coefficient ([1]; 333.2 K) does the source give for `C#CCCCCC` [1-heptyne] + OCCOCCOCCO here?
Answer: Its activity coefficient is 10.2 ± 0.7.

Question: What about the activity coefficient ([1]; 348.2 K) of the same compound?
Answer: The activity coefficient was 9.04 ± 0.62.

Question: What about the activity coefficient ([1]; 363.2 K) of the same compound?
Answer: The activity coefficient was 8.99 ± 0.61.

Question: Which activity coefficient ([1]; 333.2 K) does the source give for `C#CCCCC` [1-hexyne] + OCCOCCO here?
Answer: Its activity coefficient is 14.1 ± 0.96.

Question: What about the activity coefficient ([1]; 348.2 K) of the same compound?
Answer: The activity coefficient was 14.6 ± 1.

Question: What about the activity coefficient ([1]; 363.2 K) of the same compound?
Answer: The activity coefficient was 13.8 ± 0.94.

Question: For `C#CCCCC` [1-hexyne] + OCCOCCOCCO, which activity coefficient ([1]; 333.2 K) is on record?
Answer: Its activity coefficient is 7.01 ± 0.48.

Question: And the activity coefficient ([1]; 348.2 K)?
Answer: Its activity coefficient is 7.03 ± 0.48.

Question: And the activity coefficient ([1]; 363.2 K)?
Answer: The activity coefficient was 6.69 ± 0.46.

Question: With `C#CCCCCCC` [1-octyne] + OCCOCCO as the compound, how does the activity coefficient ([1]; 333.2 K) read?
Answer: The activity coefficient was 29.9 ± 2.

Question: What about the activity coefficient ([1]; 348.2 K) of the same compound?
Answer: The activity coefficient was 29.7 ± 2.

Question: What about the activity coefficient ([1]; 363.2 K) of the same compound?
Answer: The activity coefficient was 27 ± 1.9.

Question: What does the source list for `C#CCCCCCC` [1-octyne] + OCCOCCOCCO?
Answer: activity coefficient ([1]; 333.2 K): 14.4 ± 0.98; activity coefficient ([1]; 348.2 K): 12.8 ± 0.87; activity coefficient ([1]; 363.2 K): 12.2 ± 0.83

Question: For `C=CCCC` [1-pentene] + OCCOCCO, which activity coefficient ([1]; 333.2 K) is on record?
Answer: The activity coefficient was 35.3 ± 4.4.

Question: And the activity coefficient ([1]; 348.2 K)?
Answer: Its activity coefficient is 32.9 ± 4.1.

Question: And the activity coefficient ([1]; 363.2 K)?
Answer: Its activity coefficient is 27.6 ± 3.4.

Question: What does the source list for `C=CCCC` [1-pentene] + OCCOCCOCCO?
Answer: activity coefficient ([1]; 333.2 K): 17.5 ± 2.2; activity coefficient ([1]; 348.2 K): 16.1 ± 2; activity coefficient ([1]; 363.2 K): 14.8 ± 1.8

Question: Which activity coefficient ([1]; 333.2 K) does the source give for `C#CCCC` [1-pentyne] + OCCOCCO here?
Answer: Its activity coefficient is 9.93 ± 1.2.

Question: What about the activity coefficient ([1]; 348.2 K) of the same compound?
Answer: Its activity coefficient is 10.5 ± 1.3.

Question: What about the activity coefficient ([1]; 363.2 K) of the same compound?
Answer: The activity coefficient was 10.2 ± 1.3.

Question: Which results are given for `C#CCCC` [1-pentyne] + OCCOCCOCCO?
Answer: activity coefficient ([1]; 333.2 K): 5.07 ± 0.63; activity coefficient ([1]; 348.2 K): 5.11 ± 0.64; activity coefficient ([1]; 363.2 K): 5.01 ± 0.62

Question: Which activity coefficient ([1]; 333.2 K) does the source give for `c1ccccc1` [benzene] + OCCOCCO here?
Answer: Its activity coefficient is 7.33 ± 0.5.

Question: What about the activity coefficient ([1]; 348.2 K) of the same compound?
Answer: Its activity coefficient is 7.21 ± 0.49.

Question: And the activity coefficient ([1]; 363.2 K)?
Answer: Its activity coefficient is 7.05 ± 0.48.

Question: Which activity coefficient ([1]; 333.2 K) does the source give for `c1ccccc1` [benzene] + OCCOCCOCCO here?
Answer: Its activity coefficient is 3.91 ± 0.27.

Question: And the activity coefficient ([1]; 348.2 K)?
Answer: Its activity coefficient is 3.86 ± 0.26.

Question: What about the activity coefficient ([1]; 363.2 K) of the same compound?
Answer: The activity coefficient was 3.36 ± 0.23.

Question: With `C1CCCCCC1` [cycloheptane] + OCCOCCO as the compound, how does the activity coefficient ([1]; 333.2 K) read?
Answer: Its activity coefficient is 52.4 ± 3.6.

Question: And the activity coefficient ([1]; 348.2 K)?
Answer: Its activity coefficient is 47.4 ± 3.2.

Question: And the activity coefficient ([1]; 363.2 K)?
Answer: The activity coefficient was 42.1 ± 2.9.

Question: Which results are given for `C1CCCCCC1` [cycloheptane] + OCCOCCOCCO?
Answer: activity coefficient ([1]; 333.2 K): 29.6 ± 2; activity coefficient ([1]; 348.2 K): 22.3 ± 1.5; activity coefficient ([1]; 363.2 K): 19.8 ± 1.4

Question: Which activity coefficient ([1]; 333.2 K) does the source give for `C1CCCCC1` [cyclohexane] + OCCOCCO here?
Answer: Its activity coefficient is 42.7 ± 2.9.

Question: What about the activity coefficient ([1]; 348.2 K) of the same compound?
Answer: The activity coefficient was 39.2 ± 2.7.

Question: What about the activity coefficient ([1]; 363.2 K) of the same compound?
Answer: The activity coefficient was 34.9 ± 2.4.

Question: Which results are given for `C1CCCCC1` [cyclohexane] + OCCOCCOCCO?
Answer: activity coefficient ([1]; 333.2 K): 21.1 ± 1.4; activity coefficient ([1]; 348.2 K): 18.6 ± 1.3; activity coefficient ([1]; 363.2 K): 16.8 ± 1.1

Question: With `C1CCCCCCC1` [cyclooctane] + OCCOCCO as the compound, how does the activity coefficient ([1]; 333.2 K) read?
Answer: Its activity coefficient is 70.7 ± 4.8.

Question: What about the activity coefficient ([1]; 348.2 K) of the same compound?
Answer: The activity coefficient was 61.3 ± 4.2.

Question: And the activity coefficient ([1]; 363.2 K)?
Answer: The activity coefficient was 52.2 ± 3.6.

Question: With `C1CCCCCCC1` [cyclooctane] + OCCOCCOCCO as the compound, how does the activity coefficient ([1]; 333.2 K) read?
Answer: The activity coefficient was 35.3 ± 2.4.

Question: And the activity coefficient ([1]; 348.2 K)?
Answer: The activity coefficient was 27.2 ± 1.9.

Question: And the activity coefficient ([1]; 363.2 K)?
Answer: Its activity coefficient is 23.9 ± 1.6.

Question: Which activity coefficient ([1]; 333.2 K) does the source give for `C1CCCC1` [cyclopentane] + OCCOCCO here?
Answer: The activity coefficient was 30.9 ± 2.1.

Question: What about the activity coefficient ([1]; 348.2 K) of the same compound?
Answer: Its activity coefficient is 27.6 ± 1.9.

Question: And the activity coefficient ([1]; 363.2 K)?
Answer: The activity coefficient was 25.9 ± 1.8.

Question: For `C1CCCC1` [cyclopentane] + OCCOCCOCCO, which activity coefficient ([1]; 333.2 K) is on record?
Answer: The activity coefficient was 15.2 ± 1.

Question: And the activity coefficient ([1]; 348.2 K)?
Answer: Its activity coefficient is 14 ± 0.95.

Question: And the activity coefficient ([1]; 363.2 K)?
Answer: Its activity coefficient is 12.7 ± 0.87.

Question: With `OCCOCCO` [diethylene glycol] as the compound, how does the refractive index [2] read?
Answer: The refractive index was 1.4471 ± 0.0004.

Question: What about the mass density [3] of the same compound?
Answer: The mass density was 1120.05 ± 0.28 kg/m3.

Question: Which results are given for `CCO` [ethanol] + OCCOCCO?
Answer: activity coefficient ([1]; 333.2 K): 1.47 ± 0.1; activity coefficient ([1]; 348.2 K): 1.46 ± 0.1; activity coefficient ([1]; 363.2 K): 1.46 ± 0.1

Question: Which activity coefficient ([1]; 333.2 K) does the source give for `CCO` [ethanol] + OCCOCCOCCO here?
Answer: The activity coefficient was 1.18 ± 0.08.

Question: And the activity coefficient ([1]; 348.2 K)?
Answer: Its activity coefficient is 1.15 ± 0.07.

Question: And the activity coefficient ([1]; 363.2 K)?
Answer: Its activity coefficient is 1.12 ± 0.07.
